biological target: LRRK2 (Homo sapiens (Human), UniProt Q5S007); assay: In Vitro LRRK2 Assay (LabChip 3000, fluorescently-labeled peptide substrate); type: biochemical; settings: ATP 130 μM, substrate 1 μM, 2 hours, ambient temperature; LRRK2 variant not given; read-out: Ki (μM), affinity values for LRRK2
Sequence (Q5S007 whole entry G2019S): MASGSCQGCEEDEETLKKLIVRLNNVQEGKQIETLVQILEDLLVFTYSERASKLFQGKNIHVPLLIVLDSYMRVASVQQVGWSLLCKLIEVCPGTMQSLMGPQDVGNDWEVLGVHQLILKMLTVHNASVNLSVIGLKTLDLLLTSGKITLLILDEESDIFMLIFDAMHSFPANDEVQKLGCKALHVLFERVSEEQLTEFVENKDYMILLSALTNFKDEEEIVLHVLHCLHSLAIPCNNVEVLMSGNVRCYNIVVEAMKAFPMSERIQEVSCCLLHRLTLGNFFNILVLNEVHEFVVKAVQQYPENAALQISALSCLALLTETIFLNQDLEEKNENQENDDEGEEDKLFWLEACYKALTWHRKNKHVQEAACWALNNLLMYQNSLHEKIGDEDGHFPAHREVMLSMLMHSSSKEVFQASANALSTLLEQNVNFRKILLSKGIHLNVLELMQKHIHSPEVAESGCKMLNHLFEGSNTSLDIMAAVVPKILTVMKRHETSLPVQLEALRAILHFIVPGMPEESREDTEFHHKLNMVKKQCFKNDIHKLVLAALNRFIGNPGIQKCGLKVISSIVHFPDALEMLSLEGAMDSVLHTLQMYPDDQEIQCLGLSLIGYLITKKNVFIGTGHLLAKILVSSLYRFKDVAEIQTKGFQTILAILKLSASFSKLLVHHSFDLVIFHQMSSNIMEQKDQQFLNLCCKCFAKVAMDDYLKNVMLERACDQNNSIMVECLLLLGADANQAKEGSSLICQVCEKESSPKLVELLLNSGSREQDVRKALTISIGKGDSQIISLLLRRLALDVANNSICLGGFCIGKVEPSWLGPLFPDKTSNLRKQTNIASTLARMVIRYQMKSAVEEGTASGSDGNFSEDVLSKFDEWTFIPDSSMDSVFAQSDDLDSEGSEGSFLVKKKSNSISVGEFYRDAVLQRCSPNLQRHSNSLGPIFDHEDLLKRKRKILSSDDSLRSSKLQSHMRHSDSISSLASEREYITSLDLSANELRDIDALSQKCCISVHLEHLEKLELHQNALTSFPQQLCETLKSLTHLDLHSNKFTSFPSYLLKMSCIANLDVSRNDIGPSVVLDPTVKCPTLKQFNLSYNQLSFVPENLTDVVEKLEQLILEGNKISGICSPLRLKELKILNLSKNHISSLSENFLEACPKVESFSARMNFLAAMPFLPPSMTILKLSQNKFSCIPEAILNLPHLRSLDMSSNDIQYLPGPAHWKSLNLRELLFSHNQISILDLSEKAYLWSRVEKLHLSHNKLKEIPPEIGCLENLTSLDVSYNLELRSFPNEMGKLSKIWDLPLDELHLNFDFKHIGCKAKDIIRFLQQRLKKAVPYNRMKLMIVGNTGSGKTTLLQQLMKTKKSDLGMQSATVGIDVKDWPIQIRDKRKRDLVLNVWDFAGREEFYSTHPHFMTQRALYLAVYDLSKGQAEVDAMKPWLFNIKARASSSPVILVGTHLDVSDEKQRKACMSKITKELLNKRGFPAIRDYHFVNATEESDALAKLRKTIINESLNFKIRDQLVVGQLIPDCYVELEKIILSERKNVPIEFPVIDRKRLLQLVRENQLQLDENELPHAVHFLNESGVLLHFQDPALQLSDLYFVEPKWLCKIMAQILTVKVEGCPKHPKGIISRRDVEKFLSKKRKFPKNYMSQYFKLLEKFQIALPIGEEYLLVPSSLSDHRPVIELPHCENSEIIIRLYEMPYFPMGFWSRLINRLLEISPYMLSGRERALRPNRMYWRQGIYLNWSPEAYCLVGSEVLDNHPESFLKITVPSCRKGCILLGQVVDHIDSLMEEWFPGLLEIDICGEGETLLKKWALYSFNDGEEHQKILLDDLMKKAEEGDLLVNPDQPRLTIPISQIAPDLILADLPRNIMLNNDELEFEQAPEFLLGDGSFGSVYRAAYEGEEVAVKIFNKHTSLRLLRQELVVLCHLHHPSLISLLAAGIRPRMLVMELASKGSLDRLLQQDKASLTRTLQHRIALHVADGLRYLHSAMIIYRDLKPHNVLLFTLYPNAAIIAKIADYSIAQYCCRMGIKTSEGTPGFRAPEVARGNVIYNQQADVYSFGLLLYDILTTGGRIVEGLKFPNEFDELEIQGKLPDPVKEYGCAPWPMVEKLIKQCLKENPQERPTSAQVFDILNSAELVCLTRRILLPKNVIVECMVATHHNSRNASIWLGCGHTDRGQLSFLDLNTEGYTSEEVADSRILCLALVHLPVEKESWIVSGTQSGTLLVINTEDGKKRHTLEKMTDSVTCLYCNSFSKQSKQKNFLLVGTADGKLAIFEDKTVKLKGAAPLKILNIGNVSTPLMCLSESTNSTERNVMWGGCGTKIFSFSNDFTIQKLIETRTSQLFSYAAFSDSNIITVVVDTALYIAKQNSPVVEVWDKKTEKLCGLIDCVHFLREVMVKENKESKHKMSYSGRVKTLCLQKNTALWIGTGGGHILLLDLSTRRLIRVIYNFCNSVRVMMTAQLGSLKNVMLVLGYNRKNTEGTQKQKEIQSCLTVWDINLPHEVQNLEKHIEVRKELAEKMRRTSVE

Molecule | Ki [µM]
Cc1n[nH]c2ccnc(NC3CCOCC3)c12 [Example 188, 3-methyl-N-(tetrahydro-2H-pyran-4-yl)-1H-pyrazolo[4,3-c]pyridin-4-amine] | 0.13
COc1nccc2[nH]nc(-c3cnn(C4CCOCC4)c3)c12 [Example 184, 4-methoxy-3-(1-(tetrahydro-2H-pyran-4-yl)-1H-pyrazol-4-yl)-1H-pyrazolo[4,3-c]pyridine] | 0.033
Cc1cc2[nH]nc(-c3ccnc(N4CCOCC4)c3)c2c(OC2CCOCC2)n1 [Example 172, 4-(4-(6-methyl-4-(tetrahydro-2H-pyran-4-yloxy)-1H-pyrazolo[4,3-c]pyridin-3-yl)pyridin-2-yl)morpholine] | 0.035
CC(C)n1cc(-c2n[nH]c3ccnc(OCC(F)(F)F)c23)cn1 [Example 76, 3-(1-Isopropyl-1H-pyrazol-4-yl)-4-(2,2,2-trifluoroethoxy)-1H-pyrazolo[4,3-c]pyridine] | 0.026
CC(C)Oc1nccc2[nH]nc(-c3ccnc(C(=O)N4C[C@@H]5C[C@H]4CO5)c3)c12 [Example 220, [4-(4-Isopropoxy-1H-pyrazolo[4,3-c]pyridin-3-yl)-pyridin-2-yl]-(1S,4S)-2-oxa-5-aza-bicyclo[2.2.1]hept-5-yl-methanone] | 0.384
COc1nccc2[nH]nc(-c3cc(C(=O)NC4COC4)n(C(C)C)c3)c12 [Example 64, 1-isopropyl-4-(4-methoxy-1H-pyrazolo[4,3-c]pyridin-3-yl)-N-(oxetan-3-yl)-1H-pyrrole-2-carboxamide] | 0.014
CC(C)c1nc(-c2n[nH]c3ccnc(NC4CCOCC4)c23)n[nH]1 [Example 168, 3-(5-Isopropyl-4H-1,2,4-triazol-3-yl)-N-(tetrahydro-2H-pyran-4-yl)-1H-pyrazolo[4,3-c]pyridin-4-amine] | 0.007
COc1nccc2[nH]nc(-c3ccnc(-c4cnn(C)c4)c3)c12 [Example 121, 4-Methoxy-3-(2-(1-methyl-1H-pyrazol-4-yl)pyridin-4-yl)-1H-pyrazolo[4,3-c]pyridine] | 0.042
c1cc2[nH]nc(-c3cnn(C4CCOC4)c3)c2c(OC2CCOCC2)n1 (centres unmarked) [Example 98, 4-(Tetrahydro-2H-pyran-4-yloxy)-3-(1-(tetrahydrofuran-3-yl)-1H-pyrazol-4-yl)-1H-pyrazolo[4,3-c]pyridine] | 0.005
COc1nccc2[nH]nc(-c3cc(C(=O)N(C)C)n(C(C)C)c3)c12 [Example 61, 1-Isopropyl-4-(4-methoxy-1H-pyrazolo[4,3-c]pyridin-3-yl)-N,N-dimethyl-1H-pyrrole-2-carboxamide] | 0.077
3-(1-isopropyl-1H-benzo[d]imidazol-5-yl)-4-(tetrahydro-2H-pyran-4-yloxy)-1H-pyrazolo[4,3-c]pyridine [Example 123] | 0.02
COc1nccc2[nH]nc(-c3ccnc(N4CCCC4)c3)c12 [Example 119, 4-Methoxy-3-(2-(pyrrolidin-1-yl)pyridin-4-yl)-1H-pyrazolo[4,3-c]pyridine] | 0.026
O=C(c1ccc(CCc2n[nH]c3ccnc(NC4CCCCC4)c23)cc1)N1CCN(C2CC2)CC1 [Example 8, (4-{2-[4-(Cyclohexylamino)-1H-pyrazolo[4,3-c]pyridin-3-yl]ethyl}phenyl)(4-cyclopropylpiperazin-1-yl)methanone] | 0.017

Now from value to molecule:

Ki [µM] | Molecule
0.01 | Cn1cc(-c2cc(-c3n[nH]c4ccnc(OC5CCOCC5)c34)ccn2)cn1 [Example 116, 3-(2-(1-Methyl-1H-pyrazol-4-yl)pyridin-4-yl)-4-(tetrahydro-2H-pyran-4-yloxy)-1H-pyrazolo[4,3-c]pyridine]
0.04 | COc1cc(Nc2[nH]nc3ccnc(OC4CCOCC4)c23)ccn1 [Example 162, N-(2-methoxypyridin-4-yl)-4-(tetrahydro-2H-pyran-4-yloxy)-1H-pyrazolo[4,3-c]pyridin-3-amine]
0.029 | CS(=O)(=O)c1cccc(-c2[nH]nc3ccnc(OC4CCOCC4)c23)c1 [Example 165, 3-(3-(Methylsulfonyl)phenyl)-4-(tetrahydro-2H-pyran-4-yloxy)-1H-pyrazolo[4,3-c]pyridine]
0.021 | c1cncc(-c2cc(-c3n[nH]c4ccnc(OC5CCOCC5)c34)ccn2)c1 [Example 197, 3-(2,3′-bipyridin-4-yl)-4-(tetrahydro-2H-pyran-4-yloxy)-1H-pyrazolo[4,3-c]pyridine]
0.132 | c1coc(-c2n[nH]c3ccnc(OC4CCOCC4)c23)c1 [Example 37, 3-(Furan-2-yl)-4-(tetrahydro-2H-pyran-4-yloxy)-1H-pyrazolo[4,3-c]pyridine]
0.006 | CN1CCN(c2cc(-c3n[nH]c4ccnc(OC5CCOCC5)c34)ccn2)CC1 [Example 14, 3-[2-(4-Methylpiperazin-1-yl)pyridin-4-yl]-4-(tetrahydro-2H-pyran-4-yloxy)-1H-pyrazolo[4,3-c]pyridine]
0.006 | CC1CCCN(c2cc(-c3n[nH]c4ccnc(OC5CCOCC5)c34)ccn2)C1 (centres unmarked) [Example 111, 3-(2-(3-Methylpiperidin-1-yl)pyridin-4-yl)-4-(tetrahydro-2H-pyran-4-yloxy)-1H-pyrazolo[4,3-c]pyridine]

Reference: patent US8569281B2, “Compounds and their administration for treating a neurodegenerative disease as well as a method for identifying a compound capable of inhibiting a kinase, such as LRRK” (Medical Research Council Technology, priority 2010, dated 2013)
